Measurements reported in patent US8431170B2, “Antimicrobial composition with low cytotoxicity” (Oy Granula AB Ltd., priority 2008, dated 2013).
Read-outs that look alike come from different tables or passages of the source.

Legend:
[1] = pure polyphenols; values marked 1: Willför et al., J. Agric. Food Chem. 51, 7600-7606 (2003); cited from earlier work
[2] = pure polyphenols; values marked 1: Willför et al., J. Agric. Food Chem. 51 (2003); cited from earlier work
[3] = Antioxidative capacity: inhibition of the peroxidation of lipids; assay type: biochemical; conditions: pure polyphenols isolated from wood material
Excerpt: In Tables 4A, 4B, 4C and 4D, there are represented antioxidative and free radical capturing effects of pure polyphenolic compounds and of unrefined polyphenolic compounds containing raw extracts obtained from wood bark and knotty stemwood. Tables 4A and 4B represent the antioxidative effect of a few pure polyphenols and of unrefined polyphenolic compounds containing raw extracts, obtained from wood bark and knotty stemwood. Tables 4C and 4D in turn illustrate the peroxide radicals capturing capacity of a few pure polyphenols and of unrefined, polyphenolic compounds containing raw extracts, obtained from wood bark and knotty stemwood. In Tables 4A-4D, it can be observed that the antioxidative and free radical capturing properties of solutions containing pure polyphenol compounds, obtained from wood material in hydrophilic extraction, are often remarkably different from the corresponding properties of compound mixtures containing unrefined raw extract solutions and obtained from wood material in hydrophilic extraction, owing to the synergetic effects of the compounds contained in the compound mixtures in unrefined extracts. The compound mixtures according to the invention are obtained from these unrefined raw extract solutions.

[4] = Peroxide radicals capturing capacity; assay type: biochemical; conditions: pure polyphenols isolated from wood material
Excerpt: Tables 4C and 4D further represent the free radicals capturing capacity of certain pure polyphenols and unrefined polyphenol extracts with respect to peroxide radicals. Tables 4A and 4B represent the antioxidative effect of a few pure polyphenols and of unrefined polyphenolic compounds containing raw extracts, obtained from wood bark and knotty stemwood. Tables 4C and 4D in turn illustrate the peroxide radicals capturing capacity of a few pure polyphenols and of unrefined, polyphenolic compounds containing raw extracts, obtained from wood bark and knotty stemwood. In Tables 4A-4D, it can be observed that the antioxidative and free radical capturing properties of solutions containing pure polyphenol compounds, obtained from wood material in hydrophilic extraction, are often remarkably different from the corresponding properties of compound mixtures containing unrefined raw extract solutions and obtained from wood material in hydrophilic extraction, owing to the synergetic effects of the compounds contained in the compound mixtures in unrefined extracts. The compound mixtures according to the invention are obtained from these unrefined raw extract solutions.

human keratinocyte cells = assay type: cell-based

EC50 which inhibits 50% of the peroxidation of the lipids [3] [µg/mL]	Compound	Peroxide radicals capturing capacity [1] [mmol/g]	EC50 which inhibits 50% of the peroxidation of the lipids [2] [µg/mL]	Peroxide radicals capturing capacity [4] [mmol/g]	further results
	COc1cc(C[C@H]2COC(=O)[C@]2(O)Cc2ccc(O)c(OC)c2)ccc1O [Nortrachelogenin]	5.9	0.053		
0.036	Oc1ccc([C@H]2Oc3c(ccc(O)c3O)[C@@H](O)[C@H]2O)cc1O [Melacasidine]			20	
	COc1cc(C[C@H]2CO[C@H](c3ccc(O)c(OC)c3)[C@H]2CO)ccc1O [Lariciresinol]	2.7	0.126		
	COc1cc(C[C@@H](CO)[C@H](CO)Cc2ccc(O)c(OC)c2)ccc1O [Secoisolariciresinol]	8.5	0.037		
0.05	Oc1cc(O)cc(/C=C/c2ccccc2)c1 [Pinosylvin]			0.78	
	Cc1cc(C(C)(C)C)c(O)c(C(C)(C)C)c1 [BTH, butylated hydroxytoluene]				EC20 (limit value by which 20% of the cultivated cells died) (human keratinocyte cells; human, 24 h): 5.50 ppm; times more cytotoxic than HMR powder (human keratinocyte cells; ratio to HMR powder): 10-20 times
	COc1cc(C[C@H]2C(=O)OC[C@@H]2[C@H](O)c2ccc(O)c(OC)c2)ccc1O [Hydroxymatairesinol]	5.6	0.058		
0.017	COc1cc([C@H]2c3cc(O)c(OC)cc3C[C@@H](CO)[C@@H]2CO)ccc1O [Cyclolariciresinol]			12	
	COc1cc(C[C@H]2COC(=O)[C@@H]2Cc2ccc(O)c(OC)c2)ccc1O [Matairesinol]	2.9	0.099		
0.05	Oc1ccc([C@H]2Oc3c(ccc(O)c3O)[C@@H](O)[C@H]2O)cc1 [Teracasidine]			7.8	
	O=C1c2c(O)cc(O)cc2O[C@H](c2ccc(O)c(O)c2)[C@H]1O [Taxifolin]	16	0.046		
0.488	O=C1c2c(O)cc(O)cc2O[C@H](c2ccc(O)cc2)[C@H]1O [Dihydrokaempferol]			0.78	
1.135	O=C1C[C@@H](c2ccccc2)Oc2cc(O)cc(O)c21 [Pinosembrin]			0.49	

Compound	EC50 which inhibits 50% of the peroxidation of the lipids [3] [µg/mL]	Peroxide radicals capturing capacity [1] [mmol/g]	EC50 which inhibits 50% of the peroxidation of the lipids [2] [µg/mL]	Peroxide radicals capturing capacity [4] [mmol/g]	further results
Pinoresinol	0.02			7.8	
